# Laboratory results reported in PubChem BioAssay AID2060487 (Molecular Pharmacology Branch, DTP, NCI, 2025).
# Tested on: 997537-175-T-J1-PDC complex spheroid viability
# Assay: Anticancer human tumor 997537-175-T-J1-PDC patient-derived colon adenocarcinoma cell line growth inhibition [GQUAD]
# Settings: for IC50: curve of first compound; for viability, T/C: stronger effect = lower value
# From the text: DNA G-quadruplex Stabilizer Agents in Combinations in Complex Spheroids
# A high-throughput screen of multi-cell type tumor spheroids was designed to identify active combinations of DNA G-quadruplex stabilizer agents and targeted small molecules. Complex spheroids include a stromal component modeled by human endothelial cells (HUVEC) and fibroblasts modeled by human mesenchymal stem cells (MSCs). The concentration ranges selected for each drug and investigational agent were based upon clinically achievable concentrations if the clinical Cmax of the agent was known.
# Compounds. The drugs and investigational agents: pidnarulex (CX-5461; NSC782164), APTO-253 (NSC789042), BRACO-19 (NSC847499), peposertib (NSC802822), ceralasertib (NSC780249), elimusertib (NSC800525), camonsertib (NSC841442), AZD-1390 (NSC803789), olaparib (NSC753686), talazoparib (NSC767125), ART-558 (NSC835418), sotorasib (NSC818433), MRTX-1133 (NSC836407), SN-38 (NSC673596), topotecan (NSC609699), etoposide (NSC141540), doxorubicin (NSC123127), gemcitabine (NSC613327), 5-fluorouracil (NSC19893), paclitaxel (NSC125973), vemurafenib (NSC761431), panobinostat (NSC761190), R-306465 (JNJ-16241199; NSC773264), adavosertib (NSC754352), TP-3654 (NSC805149), carboplatin (NSC241240), KSQ-4279 (NSC840948), and staurosporine (NSC755774) were obtained from the National Cancer Institute (NCI) Developmental Therapeutics Program Chemical Repository (34). The FDA-approved anticancer drug set is available from the NCI Developmental Therapeutics Program. […] The stock solutions were prepared in dimethyl sulfoxide (DMSO, Sigma-Aldrich, St. Louis, MO, cat. D2650) at 800-fold the tested concentration and stored at -70 degrees C prior to their use. All drugs and investigational agents were tested over a range starting from a high concentration at or near the clinical Cmax and decreasing in half-log increments. If the clinical Cmax for an agent had not been determined, the highest concentration tested was 10 microM.
# 2.3 Cell Culture. All cells were maintained in an incubator at 37 degrees C and 5% CO2 with 95% humidity. The PDC lines were cultured according to standard operating procedures established by the NCI PDMR. All PDCs were thawed and cultured in Matrigel-coated flasks prepared with a working solution of 1X Ham's F-12 nutrient mix, without supplementation (Invitrogen, cat. 11765054), 100 U/mL penicillin-streptomycin (Invitrogen, cat. 15140122), and 2.5% Matrigel (Corning Inc., cat. 354248) for the first three passages. The 857933-349-R-J2-PDC line was cultured in 6C/Colon 1B media, which includes advanced DMEM/F-12 (Thermo Fisher Scientific, cat. 12634028), 10 mM HEPES (Thermo Fisher Scientific, cat. 15630080), 1X GlutaMAX supplement (Thermo Fisher Scientific, cat. 35050061), 0.1 mg/mL primocin (InvivoGen, cat. ant-pm-2), 10% defined fetal bovine serum, heat inactivated (HyClone Laboratories Inc., cat. SH30070.03HI), 50% L-WRN conditioned media (ATCC, cat. CRL-3276), 1.25 mM N-Acetyl-L-cysteine (Sigma-Aldrich, cat. A9165), 10 mM nicotinamide (Sigma-Aldrich, cat. N0636), 1X B-27 supplement (Thermo Fisher Scientific, cat. 17504044), 1X N-2 supplement (Thermo Fisher Scientific, cat. 17502048), 10 microM Y-27632 dihydrochloride (Tocris Bioscience, cat. 1254), and 50 ng/mL human EGF recombinant protein (Thermo Fisher Scientific, cat. PHG0311). The 485176-168-R4-J1-PDC line was cultured in Panc media, which includes all 6C/Colon 1B media components plus 100 ng/mL human FGF-10 (Thermo Fisher Scientific, cat. 100-26), 500 nM SB-431542 (Selleckchem, cat. S1067), and gastrin (Tocris, cat. 3006).
# […]
# [1] = second compound 0.0316 µM, first compound 0.0316 µM
# [2] = second compound 0.0316 µM, first compound 0.316 µM
# [3] = second compound 0.1 µM, first compound 0.0316 µM
# [4] = second compound 0.1 µM, first compound 0.316 µM
# [5] = second compound 0.316 µM, first compound 0.0316 µM
# [6] = second compound 0.316 µM, first compound 0.316 µM
# [7] = second compound 1 µM, first compound 0.0316 µM
# [8] = second compound 1 µM, first compound 0.316 µM
# [9] = second compound 3.16 µM, first compound 0.0316 µM
# [10] = second compound 3.16 µM, first compound 0.316 µM
# [11] = second compound 10 µM, first compound 0.0316 µM
# [12] = second compound 10 µM, first compound 0.316 µM
# 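Also: spheroids exposed to the agents for 7 days.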
# 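For viability, T/C in this document: 100% = DMSO vehicle control viability.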
structure (smiles),measurement,setting,value
Nc1ccn(C2OC(CO)C(O)C2(F)F)c(=O)n1 (centres undefined) + Cc1cnc(CNC(=O)c2c(=O)c3ccc(N4CCCN(C)CC4)nc3n3c2sc2ccccc23)cn1,IC50,second compound 0.0316 µM,> 10000 nM
same,IC50,second compound 0.1 µM,> 10000 nM
same,IC50,second compound 0.316 µM,> 10000 nM
same,IC50,second compound 1 µM,> 10000 nM
same,IC50,second compound 3.16 µM,> 10000 nM
same,IC50,second compound 10 µM,> 10000 nM
same,"viability, T/C",[1],90.3%
same,"viability, T/C","second compound 0.0316 µM, first compound 0.1 µM",99.5%
same,"viability, T/C",[2],87.3%
same,"viability, T/C","second compound 0.0316 µM, first compound 1 µM",66.6%
same,"viability, T/C","second compound 0.0316 µM, first compound 3.16 µM",66.5%
same,"viability, T/C","second compound 0.0316 µM, first compound 10 µM",56.4%
same,"viability, T/C",[3],99.4%
same,"viability, T/C","second compound 0.1 µM, first compound 0.1 µM",84.5%
same,"viability, T/C",[4],94.7%
same,"viability, T/C","second compound 0.1 µM, first compound 1 µM",56.4%
same,"viability, T/C","second compound 0.1 µM, first compound 3.16 µM",89.4%
same,"viability, T/C","second compound 0.1 µM, first compound 10 µM",83.8%
same,"viability, T/C",[5],93.1%
same,"viability, T/C","second compound 0.316 µM, first compound 0.1 µM",108%
same,"viability, T/C",[6],69.4%
same,"viability, T/C","second compound 0.316 µM, first compound 1 µM",76.6%
same,"viability, T/C","second compound 0.316 µM, first compound 3.16 µM",94.6%
same,"viability, T/C","second compound 0.316 µM, first compound 10 µM",92.9%
same,"viability, T/C",[7],89.8%
same,"viability, T/C","second compound 1 µM, first compound 0.1 µM",103%
same,"viability, T/C",[8],102%
same,"viability, T/C","second compound 1 µM, first compound 1 µM",68.3%
same,"viability, T/C","second compound 1 µM, first compound 3.16 µM",104%
same,"viability, T/C","second compound 1 µM, first compound 10 µM",77.6%
same,"viability, T/C",[9],68.8%
same,"viability, T/C","second compound 3.16 µM, first compound 0.1 µM",96.6%
same,"viability, T/C",[10],106%
same,"viability, T/C","second compound 3.16 µM, first compound 1 µM",101%
same,"viability, T/C","second compound 3.16 µM, first compound 3.16 µM",85.6%
same,"viability, T/C","second compound 3.16 µM, first compound 10 µM",89.3%
same,"viability, T/C",[11],103%
same,"viability, T/C","second compound 10 µM, first compound 0.1 µM",85.9%
same,"viability, T/C",[12],113%
same,"viability, T/C","second compound 10 µM, first compound 1 µM",72.9%
same,"viability, T/C","second compound 10 µM, first compound 3.16 µM",91%
same,"viability, T/C","second compound 10 µM, first compound 10 µM",73.7%
CCc1c2c(nc3ccc(O)cc13)-c1cc3c(c(=O)n1C2)COC(=O)[C@]3(O)CC + CN(C)c1ccc(Nc2c3ccc(NC(=O)CCN4CCCC4)cc3nc3cc(NC(=O)CCN4CCCC4)ccc23)cc1,IC50,second compound 0.0316 µM,13.8 nM
same,IC50,second compound 0.1 µM,10.3 nM
same,IC50,second compound 0.316 µM,10.2 nM
same,IC50,second compound 1 µM,15.7 nM
same,IC50,second compound 3.16 µM,15.8 nM
same,IC50,second compound 10 µM,21.3 nM
same,"viability, T/C","second compound 0.0316 µM, first compound 0.000999 µM",97.8%
same,"viability, T/C","second compound 0.0316 µM, first compound 0.00316 µM",84.2%
same,"viability, T/C","second compound 0.0316 µM, first compound 0.00999 µM",58.6%
same,"viability, T/C",[1],29.5%
same,"viability, T/C","second compound 0.0316 µM, first compound 0.0999 µM",6.84%
same,"viability, T/C",[2],4.15%
same,"viability, T/C","second compound 0.1 µM, first compound 0.000999 µM",104%
same,"viability, T/C","second compound 0.1 µM, first compound 0.00316 µM",83.4%
same,"viability, T/C","second compound 0.1 µM, first compound 0.00999 µM",50.6%
same,"viability, T/C",[3],22.9%
same,"viability, T/C","second compound 0.1 µM, first compound 0.0999 µM",9.03%
same,"viability, T/C",[4],4.26%
same,"viability, T/C","second compound 0.316 µM, first compound 0.000999 µM",97%
same,"viability, T/C","second compound 0.316 µM, first compound 0.00316 µM",78.4%
same,"viability, T/C","second compound 0.316 µM, first compound 0.00999 µM",51.6%
same,"viability, T/C",[5],22.6%
same,"viability, T/C","second compound 0.316 µM, first compound 0.0999 µM",8.39%
same,"viability, T/C",[6],4.2%
same,"viability, T/C","second compound 1 µM, first compound 0.000999 µM",77.5%
same,"viability, T/C","second compound 1 µM, first compound 0.00316 µM",58.7%
same,"viability, T/C","second compound 1 µM, first compound 0.00999 µM",67.6%
same,"viability, T/C",[7],23.9%
same,"viability, T/C","second compound 1 µM, first compound 0.0999 µM",11.6%
same,"viability, T/C",[8],3.86%
same,"viability, T/C","second compound 3.16 µM, first compound 0.000999 µM",75%
same,"viability, T/C","second compound 3.16 µM, first compound 0.00316 µM",85%
same,"viability, T/C","second compound 3.16 µM, first compound 0.00999 µM",57.8%
same,"viability, T/C",[9],33.8%
same,"viability, T/C","second compound 3.16 µM, first compound 0.0999 µM",9.84%
same,"viability, T/C",[10],4.51%
same,"viability, T/C","second compound 10 µM, first compound 0.000999 µM",83.9%
same,"viability, T/C","second compound 10 µM, first compound 0.00316 µM",84%
same,"viability, T/C","second compound 10 µM, first compound 0.00999 µM",80.4%
same,"viability, T/C",[11],34.2%
same,"viability, T/C","second compound 10 µM, first compound 0.0999 µM",11.7%
same,"viability, T/C",[12],4.48%
